{"source": "paper PMC3229099", "about": "(Acta biochimica Polonica, 2011)", "origin": "cited, not measured here", "key": {"[1]": {"tested_on": "δ receptor versus μ receptor", "conditions": "ref Pawlak et al, 1997"}, "opioid δ receptors": {"tested_on": "opioid δ receptors", "conditions": "in vivo studies with the use of selective opioid receptor antagonists; ref Kotlińska et al, 2009"}}, "data": [{"substance": "amide of cyclo[N^ε, N^δ -carbonyl-D-Lys^2, Dap^5 ]enkephalin", "values": [{"measurement": "GPI/MVD ratio", "setting": "[1]", "result": 0.33}, {"measurement": "receptor type mediating antinociception in vivo", "setting": "opioid δ receptors", "result": "induced antinociception predominantly through opioid δ receptors"}]}]}
